Experiments:
[1] = test system: cell growth and survival; conditions: cited from earlier work
[2] = test system: Y397-FAK phosphorylation; conditions: cited from earlier work
[3] = test system: Y397 phosphorylation of FAK; assay: Western blotting with Y397 FAK antibody, BT474 cells; format: cell-based; conditions: 100 μM
Experimental: (§1) Cell Viability Assay—The Cells were treated with peptides for 24 hours at different peptide concentrations. The 3-(4,5-dimethylthiazol-2-yl)-5-(3-carboxymethoxyphenyl)-2-(4-sulfophenyl)-2H-tetrazolium compound from Promega Viability kit (Madison, Ill.) was added, and the cells were incubated at 37° C. for 1-2 hours. The optical density on 96-plate was analyzed with a microplate reader at 490 nm to determine cell viability. In addition, cells were stained with trypan blue after 24 hours of treatment with Y15 and the percent of cells that stained positive were determined with a hemacytometer. Cell adhesion assay—The poly-L-Lysine or Collagen (5 μg/ml) coated 96-well plates were blocked with the blocking buffer (medium with 0.5% BSA) for 1 hour at 37 C. The cells were pre-treated with drugs for 3 hours and plated for adhesion at 4×10^5 cells. Cells were incubated at 37 C for 1 hour, fixed in 3.7% formaldehyde, washed in 0.1% BSA in PBS and stained with crystal violet (5 mg/ml in 2% ethanol) for 10 minutes. Then 2% SDS was added to the dried plated and OD at 590 nm was measured for detecting cell adhesion. Western Blotting—Cells or homogenized tumor samples were washed twice with cold 1×PBS and lysed on ice for 30 minutes in a buffer containing: 50 mM Tris-HCl (pH 7.5), 150 mM NaCl, 1% Triton-X, 0.5% NaDOC, 0.1% SDS, 5 mM EDTA, 50 mM NaF, 1 mM NaVO3, 10% glycerol and protease inhibitors: 10 μg/ml leupeptin, 10 μg/ml PMSF and 1 μg/ml aprotinin. The lysates were cleared by centrifugation at 10,000 rpm for 30 minutes at 4° C. Protein concentrations were determined using a Bio-Rad Kit. The boiled samples were loaded on Ready SDS-10% PAGE gels (Bio Rad, Inc) and used for Western blot analysis with the protein-specific antibody. Immunoblots were developed with chemiluminescence Renaissance reagent (NEN Life Science Products, Inc). Immunoprecipitation. Immunoprecipitation was performed according to the standard protocol. In brief, the pre-cleared lysates with equal amount of protein were incubated with 1 μg of primary antibody and 30 μl A/G agarose beads overnight at 4° C. The precipitates were washed with lysis buffer three times and re-suspended in 2× Laemmli buffer. The boiled samples were used for Western blotting, as described above. Detachment Assay—Cells were plated with and without inhibitors for 24 hours, and detached and attached cells were counted in a hemocytometer. We calculated the percent of detachment by dividing the number of detached cells by the total number of cells. The percent of detached cells was calculated in three independent experiments. Apoptosis Assay. Detached cells were collected and fixed in 3.7% formaldehyde in 1×PBS solution for the apoptosis assay. Detection of apoptosis was done with Hoechst 33342 staining. The percent of apoptotic cells was calculated as a ratio of apoptotic detached cells divided by the total number of cells in three independent experiments in several fields with the fluorescent microscope. For each experiment 300 cells per treatment were counted. In vitro Kinase Assay—10 μCi of [γ-^32P]-ATP in a kinase buffer (20 mM HEPES, pH 7.4, 5 mM MgCl2, 5 mM MnCl2, 0.1 mM Na3VO4 with 0.1 μg of purified FAK protein were incubated in a kinase buffer with 10 μCi of [γ-^32P]-ATP. The kinase reaction was performed for 5 minutes at room temperature and stopped by addition of 2× Laemmli buffer. Proteins were separated on a Ready SDS-10% PAGE gel, and the phosphorylated enolase was visualized by autoradiography. KinaseProfiler screening—Kinase specificity screening was performed with KinaseProfiler™ Service (Millipore) available on http://www.millipore.com/drugdiscovery/dd3/KinaseProfiler. The screening was performed with 1 μM Y15, 10 μM ATP and kinase substrates on 9 recombinant kinases according to Millipore protocol. Tumor Growth in Nude Mice—Female nude mice, 6 weeks old, were purchased from Harlan Laboratory. […]

[4] = target: T1, FAK (Homo sapiens, UniProt Q05397); assay: In vitro kinase assay with purified recombinant FAK; format: biochemical; conditions: positive control
T1 construct: made in house; host or cells: Baculovirus system
Experimental: (§2) Cell Viability Assay—The Cells were treated with peptides for 24 hours at different peptide concentrations. The 3-(4,5-dimethylthiazol-2-yl)-5-(3-carboxymethoxyphenyl)-2-(4-sulfophenyl)-2H-tetrazolium compound from Promega Viability kit (Madison, Ill.) was added, and the cells were incubated at 37° C. for 1-2 hours. The optical density on 96-plate was analyzed with a microplate reader at 490 nm to determine cell viability. In addition, cells were stained with trypan blue after 24 hours of treatment with Y15 and the percent of cells that stained positive were determined with a hemacytometer. […] Then 2% SDS was added to the dried plated and OD at 590 nm was measured for detecting cell adhesion. […] Protein concentrations were determined using a Bio-Rad Kit. The boiled samples were loaded on Ready SDS-10% PAGE gels (Bio Rad, Inc) and used for Western blot analysis with the protein-specific antibody. […] Detachment Assay—Cells were plated with and without inhibitors for 24 hours, and detached and attached cells were counted in a hemocytometer. We calculated the percent of detachment by dividing the number of detached cells by the total number of cells. The percent of detached cells was calculated in three independent experiments. […] For each experiment 300 cells per treatment were counted. […]

[5] = test system: BT474 cells; assay: Detachment assay, BT474; format: cell-based; conditions: 24 hours
Experimental: as §1, with “Detached cells were collected and fixed in 3.7% formaldehyde in 1×PBS solution for the apoptosis assay. Detection of apoptosis was done with Hoechst 33342 staining.” left out, “http://www.millipore.com/drugdiscovery/dd3/KinaseProfiler.” for “http://www.millipore.com/drugdiscovery/dd3/KinaseProfiler. The screening was performed with 1 μM Y15, 10 μM ATP and kinase substrates on 9 recombinant kinases according to Millipore protocol. Tumor Growth in Nude Mice—Female nude mice, 6 weeks old, were purchased from Harlan Laboratory.”

[6] = test system: BT474 cells; assay: Apoptosis assay (Hoechst staining), BT474; format: cell-based
Experimental: as §1, with “Western Blotting—Cells or homogenized tumor samples were washed twice with cold 1×PBS and lysed on ice for 30 minutes in a buffer containing: 50 mM Tris-HCl (pH 7.5), 150 mM NaCl, 1% Triton-X, 0.5% NaDOC, 0.1% SDS, 5 mM EDTA, 50 mM NaF, 1 mM NaVO3, 10% glycerol and protease inhibitors: 10 μg/ml leupeptin, 10 μg/ml PMSF and 1 μg/ml aprotinin. The lysates were cleared by centrifugation at 10,000 rpm for 30 minutes at 4° C.” left out, “Immunoblots were developed with chemiluminescence Renaissance reagent (NEN Life Science Products, Inc). Immunoprecipitation. Immunoprecipitation was performed according to the standard protocol. In brief, the pre-cleared lysates with equal amount of protein were incubated with 1 μg of primary antibody and 30 μl A/G agarose beads overnight at 4° C. The precipitates were washed with lysis buffer three times and re-suspended in 2× Laemmli buffer. The boiled samples were used for Western blotting, as described above.” left out, “Apoptosis Assay. Detached cells were collected and fixed in 3.7% formaldehyde in 1×PBS solution for the apoptosis assay. Detection of apoptosis was done with Hoechst 33342 staining.” left out, “http://www.millipore.com/drugdiscovery/dd3/KinaseProfiler.” for “http://www.millipore.com/drugdiscovery/dd3/KinaseProfiler. The screening was performed with 1 μM Y15, 10 μM ATP and kinase substrates on 9 recombinant kinases according to Millipore protocol. Tumor Growth in Nude Mice—Female nude mice, 6 weeks old, were purchased from Harlan Laboratory.”

[7] = test system: Panc-1 cells; assay: Apoptosis assay (Hoechst staining), Panc-1; format: cell-based, human; conditions: 48 hours
Experimental: Cell Viability Assay—The Cells were treated with peptides for 24 hours at different peptide concentrations. The 3-(4,5-dimethylthiazol-2-yl)-5-(3-carboxymethoxyphenyl)-2-(4-sulfophenyl)-2H-tetrazolium compound from Promega Viability kit (Madison, Ill.) was added, and the cells were incubated at 37° C. for 1-2 hours. The optical density on 96-plate was analyzed with a microplate reader at 490 nm to determine cell viability. In addition, cells were stained with trypan blue after 24 hours of treatment with Y15 and the percent of cells that stained positive were determined with a hemacytometer. Cell adhesion assay—The poly-L-Lysine or Collagen (5 μg/ml) coated 96-well plates were blocked with the blocking buffer (medium with 0.5% BSA) for 1 hour at 37 C. The cells were pre-treated with drugs for 3 hours and plated for adhesion at 4×10^5 cells. Cells were incubated at 37 C for 1 hour, fixed in 3.7% formaldehyde, washed in 0.1% BSA in PBS and stained with crystal violet (5 mg/ml in 2% ethanol) for 10 minutes. Then 2% SDS was added to the dried plated and OD at 590 nm was measured for detecting cell adhesion. […] Protein concentrations were determined using a Bio-Rad Kit. The boiled samples were loaded on Ready SDS-10% PAGE gels (Bio Rad, Inc) and used for Western blot analysis with the protein-specific antibody. […] Detachment Assay—Cells were plated with and without inhibitors for 24 hours, and detached and attached cells were counted in a hemocytometer. We calculated the percent of detachment by dividing the number of detached cells by the total number of cells. The percent of detached cells was calculated in three independent experiments. […] The percent of apoptotic cells was calculated as a ratio of apoptotic detached cells divided by the total number of cells in three independent experiments in several fields with the fluorescent microscope. For each experiment 300 cells per treatment were counted. […]

[8] = test system: glioma and ovarian tumor; conditions: cited from earlier work
[9] = target: IGFR kinase (Homo sapiens, UniProt P08069); conditions: cited from earlier work
[10] = test system: Panc-1 tumor cells; assay: Panc-1 subcutaneous tumor growth in nude mice; format: in vivo; conditions: 30 mg/kg each, daily intraperitoneal
Experimental: as §2

[11] = test system: caspase-3; assay: Caspase-3 immunohistochemistry of Panc-1 tumors; format: in vivo, mice; conditions: 30 mg/kg, no significant increase
Experimental: as §2

Chain of IGFR kinase (P08069 31-1367): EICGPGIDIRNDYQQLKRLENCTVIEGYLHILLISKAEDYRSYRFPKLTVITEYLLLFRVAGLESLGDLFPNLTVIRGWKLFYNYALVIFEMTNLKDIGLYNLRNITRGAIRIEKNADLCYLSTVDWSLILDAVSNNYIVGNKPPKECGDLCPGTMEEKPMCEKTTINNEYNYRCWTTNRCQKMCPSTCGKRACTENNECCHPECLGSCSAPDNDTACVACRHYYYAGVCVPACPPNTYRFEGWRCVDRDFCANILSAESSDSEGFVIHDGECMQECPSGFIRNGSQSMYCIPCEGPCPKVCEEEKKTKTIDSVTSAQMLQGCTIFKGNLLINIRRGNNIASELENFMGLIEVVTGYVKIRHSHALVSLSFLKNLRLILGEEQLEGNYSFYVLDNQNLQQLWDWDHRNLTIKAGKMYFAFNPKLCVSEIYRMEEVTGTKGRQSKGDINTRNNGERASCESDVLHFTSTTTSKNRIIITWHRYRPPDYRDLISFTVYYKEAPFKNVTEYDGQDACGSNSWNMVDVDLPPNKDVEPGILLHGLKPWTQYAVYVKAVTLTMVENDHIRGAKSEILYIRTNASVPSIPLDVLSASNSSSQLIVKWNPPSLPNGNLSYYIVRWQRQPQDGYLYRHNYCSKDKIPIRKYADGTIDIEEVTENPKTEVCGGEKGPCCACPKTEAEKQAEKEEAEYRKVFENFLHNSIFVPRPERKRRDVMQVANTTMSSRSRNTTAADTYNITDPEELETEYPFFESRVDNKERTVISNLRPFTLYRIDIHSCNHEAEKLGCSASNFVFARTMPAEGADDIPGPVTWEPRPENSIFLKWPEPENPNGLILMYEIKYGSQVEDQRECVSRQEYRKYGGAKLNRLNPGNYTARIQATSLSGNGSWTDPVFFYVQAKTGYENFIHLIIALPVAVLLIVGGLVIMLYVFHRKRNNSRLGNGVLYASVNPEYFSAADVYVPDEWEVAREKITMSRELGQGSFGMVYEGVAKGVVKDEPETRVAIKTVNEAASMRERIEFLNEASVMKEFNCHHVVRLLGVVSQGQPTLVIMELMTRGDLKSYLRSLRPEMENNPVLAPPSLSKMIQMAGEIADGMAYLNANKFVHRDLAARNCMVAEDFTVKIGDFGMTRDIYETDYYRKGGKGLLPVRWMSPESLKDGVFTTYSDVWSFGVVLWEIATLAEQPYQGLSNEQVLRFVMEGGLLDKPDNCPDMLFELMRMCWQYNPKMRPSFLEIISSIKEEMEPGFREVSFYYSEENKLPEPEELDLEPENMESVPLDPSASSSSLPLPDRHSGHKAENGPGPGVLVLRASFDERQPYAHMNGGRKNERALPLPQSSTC
T1 sequence (Q05397 whole entry): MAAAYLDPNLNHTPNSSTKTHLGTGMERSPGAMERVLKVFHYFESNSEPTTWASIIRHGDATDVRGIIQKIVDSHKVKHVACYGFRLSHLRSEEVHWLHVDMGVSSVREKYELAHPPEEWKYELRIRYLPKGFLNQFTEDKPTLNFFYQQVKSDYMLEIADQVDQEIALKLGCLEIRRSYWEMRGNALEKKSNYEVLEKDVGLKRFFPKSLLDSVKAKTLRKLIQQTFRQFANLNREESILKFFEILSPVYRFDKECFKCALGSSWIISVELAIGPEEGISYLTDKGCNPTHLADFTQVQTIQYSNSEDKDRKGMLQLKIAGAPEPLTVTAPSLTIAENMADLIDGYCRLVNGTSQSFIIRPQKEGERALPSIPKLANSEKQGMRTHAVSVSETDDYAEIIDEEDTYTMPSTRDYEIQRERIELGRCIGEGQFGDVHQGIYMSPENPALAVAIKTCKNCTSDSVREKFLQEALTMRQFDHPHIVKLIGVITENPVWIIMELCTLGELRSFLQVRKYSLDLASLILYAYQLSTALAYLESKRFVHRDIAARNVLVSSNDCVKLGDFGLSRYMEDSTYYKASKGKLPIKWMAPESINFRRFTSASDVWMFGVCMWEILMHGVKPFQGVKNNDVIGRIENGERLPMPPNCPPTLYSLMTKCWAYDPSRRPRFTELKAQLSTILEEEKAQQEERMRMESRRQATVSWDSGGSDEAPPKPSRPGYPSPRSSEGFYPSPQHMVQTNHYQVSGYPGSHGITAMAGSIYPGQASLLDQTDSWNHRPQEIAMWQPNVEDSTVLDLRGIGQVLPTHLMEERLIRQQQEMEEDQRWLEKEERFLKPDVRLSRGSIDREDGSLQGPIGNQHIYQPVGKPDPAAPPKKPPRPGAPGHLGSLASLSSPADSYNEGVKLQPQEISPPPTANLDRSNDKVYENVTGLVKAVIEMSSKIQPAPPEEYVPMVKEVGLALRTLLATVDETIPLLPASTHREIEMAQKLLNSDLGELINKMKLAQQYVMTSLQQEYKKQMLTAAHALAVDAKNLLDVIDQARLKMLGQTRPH

Compound	cell growth and survival in vitro [1]	Y397-FAK phosphorylation [2]	total FAK level [3]	Y397 phosphorylation of FAK ([3]; 24 hours)	FAK autophosphorylation activity [4]	detachment ([5]; 10 μM)	detachment ([5]; 50 μM)	apoptosis ([6]; 10 μM)	apoptosis ([6]; 20 μM)	level of apoptosis compared to similar doses of Y15 [7]	tumor growth in ovarian tumor model ([8]; 30 mg/kg, alone)	tumor growth in vivo [8]	IGFR kinase inhibition [9]	tumor growth [10]	apoptotic cells in tumors (caspase-3 staining) [11]
CS(=O)(=O)c1cccc(CNc2nc(Nc3ccc4c(c3)CCC(=O)N4)ncc2C(F)(F)F)c1 [PF-573,228]	did not inhibit cell growth and survival in vitro	effectively blocked Y397-FAK phosphorylation	–	–	–	–	–	–	–	–	–	–	–	–	–
CNC(=O)c1ccccc1Nc1nc(Nc2ccc(N3CCOCC3)cc2OC)ncc1Cl [TAE226, reference compound]	–	effectively blocked Y397-FAK phosphorylation	down-regulated total FAK	completely blocked Y397 phosphorylation	directly blocked autophosphorylation activity of FAK	30%	> 80%	35%	69%	slightly higher level of apoptosis	not so effective	inhibited glioma and ovarian tumor growth in vivo	inhibited IGFR kinase	–	–
Nc1ccn([C@@H]2O[C@H](CO)[C@@H](O)C2(F)F)c(=O)n1 [gemcitabine, reference compound]	–	–	–	–	–	–	–	–	–	–	–	–	–	inhibited tumor growth	2%

From patent publication US8314150B2, “Kinase protein binding inhibitors” (priority 2008, dated 2012)
